Source: patent US11661419B2, “Benzimidazole derivative compounds and uses thereof” (Pfizer Inc., priority 2019, dated 2023)

System: IL-2 in activated CD4+ human T-cells
Experiment: IL-2 inhibition in supernatants from activated CD4+ human T-cells (cisbio HTRF)
Assay type: cell-based
Settings: T-cell; geometric mean of count n; CD3/CD28-expanded human CD4+ T cells stimulated with ImmunoCult, 20 to 24 hrs
Protocol: IL-2-Inhibition Activity, IC50 (uM)
IL-2 inhibition activity in supernatants from activated CD4+ human T-cells was determined by measuring the effect of a test compound on the activity using the cisbio HTRF™ technology.
Human CD4+ T cells were activated with CD3/CD28 for 3 days and expanded for an additional 4-6 days (7 to 9 days total). On day 0, frozen CD4+ T cells were thawed, treated with CD3/CD28 Dynabeads, and incubated at 37° C./5% CO2. On day 3, the beads were removed, and the cells were diluted to 5×10^5 cells/cm^2, placed in G-Rex10 flask, and incubated at 37° C./5% CO2. On day 7 to day 9 the cells were removed from the G-Rex flasks, counted and diluted back to 1×10^6 cells/ml in standard tissue culture flask.
The expanded CD4+ T-cells were centrifuged at 300×g for 10 minutes and resuspended to 0.5 million cells per ml (30,000 cells/well). 60 μl of CD4+ T cells were added per well to a 384 well plate containing 0.1 μL of varying concentrations of test compound in DMSO. The plates were incubated for 15 min at 37° C./5% CO2. 20 μl of diluted ImmunoCult™ ([…] Technologies, 1:12.5 in T cell assay media) were added to all wells of the plate (1:50 final assay concentration). The plates were incubated for an additional 20 to 24 hrs at 37° C./5% CO2. The plates were centrifuged at 300×g for 10 minutes. 16 μL of supernatant was removed and combined with 4 μl of IL-2 HTRF Abs. (cisbio kit). Plates were incubated for 3 hours at RT and read with an EnVision plate reader at 665 nm and 615 nm wavelengths.

An IC50 of 27 nM was found for Cc1cc2[nH]c(-c3n[nH]c4c3C[C@@H]3C[C@]3(C)C4)nc2cc1N(C)C(=O)C(C)C1CCOCC1 (stereo partly drawn) [Example 5, N-methyl-N-(6-methyl-2-((4aS,5aR)-5a-methyl-1,4,4a,5,5a,6-hexahydrocyclopropa[f]indazol-3-yl)-1H-benzo[d]imidazol-5-yl)-2-(tetrahydro-2H-pyran-4-yl)propanamide] in this work.

An IC50 of 13 nM was found for C[C@@H](C(=O)N(C)c1ccc2[nH]c(-c3n[nH]c4c3C[C@@H]3C[C@]3(C)C4)nc2c1)C1CCOCC1 [Example 7, (R)—N-methyl-N-(2-((4aS,5aR)-5a-methyl-1,4,4a,5,5a,6-hexahydrocyclopropa[f]indazol-3-yl)-1H-benzo[d]imidazol-5-yl)-2-(tetrahydro-2H-pyran-4-yl)propanamide] in this work.

An IC50 of 26 nM was found for CC(C(=O)N(C)c1ccc2[nH]c(-c3n[nH]c4c3C[C@@H]3C[C@]3(C)C4)nc2c1)C1CCOCC1 (stereo partly drawn) [Example 8, N-methyl-N-(2-((4aS,5aR)-5a-methyl-1,4,4a,5,5a,6-hexahydrocyclopropa[f]indazol-3-yl)-1H-benzo[d]imidazol-5-yl)-2-(tetrahydro-2H-pyran-4-yl)propanamide] in this work.

An IC50 of 99 nM was found for C[C@H](C(=O)N(C)c1ccc2[nH]c(-c3n[nH]c4c3C[C@@H]3C[C@]3(C)C4)nc2c1)C1CCOCC1 [Example 9, (S)—N-methyl-N-(2-((4aS,5aR)-5a-methyl-1,4,4a,5,5a,6-hexahydrocyclopropa[f]indazol-3-yl)-1H-benzo[d]imidazol-5-yl)-2-(tetrahydro-2H-pyran-4-yl)propanamide] in this work.

An IC50 of 34 nM was found for CN(C(=O)C(F)(F)C1CCOCC1)c1ccc2[nH]c(-c3n[nH]c4c3C[C@@H]3C[C@]3(C)C4)nc2c1 [Example 11, 2,2-difluoro-N-methyl-N-(2-((4aS,5aR)-5a-methyl-1,4,4a,5,5a,6-hexahydrocyclopropa[f]indazol-3-yl)-1H-benzo[d]imidazol-5-yl)-2-(tetrahydro-2H-pyran-4-yl)acetamide] in this work.

An IC50 of 45 nM was found for C[C@@H](C(=O)N(C)c1cc2nc(-c3n[nH]c4c3C[C@@H]3C[C@]3(C)C4)[nH]c2cc1F)N1CCOCC1 [Example 17, (S)—N-(6-fluoro-2-((4aS,5aR)-5a-methyl-1,4,4a,5,5a,6-hexahydrocyclopropa[f]indazol-3-yl)-1H-benzo[d]imidazol-5-yl)-N-methyl-2-morpholinopropanamide] in this work.

An IC50 of 91 nM was found for CCc1cc2[nH]c(-c3n[nH]c4c3C[C@@H]3C[C@]3(C)C4)nc2cc1N(C)C(=O)[C@H](C)N1CCOCC1 [Example 18, (S)—N-(6-ethyl-2-((4aS,5aR)-5a-methyl-1,4,4a,5,5a,6-hexahydrocyclopropa[f]indazol-3-yl)-1H-benzo[d]imidazol-5-yl)-N-methyl-2-morpholinopropanamide] in this work.

An IC50 of 340 nM was found for C[C@@H](C(=O)N(C)c1cc(F)c2[nH]c(-c3n[nH]c4c3C[C@@H]3C[C@]3(C)C4)nc2c1)N1CCOCC1=O [Example 22, (S)—N-(7-fluoro-2-((4aS,5aR)-5a-methyl-1,4,4a,5,5a,6-hexahydrocyclopropa[f]indazol-3-yl)-1H-benzo[d]imidazol-5-yl)-N-methyl-2-(3-oxomorpholino)propanamide] in this work.

An IC50 of 304 nM was found for C[C@H](C(=O)N(C)c1cc(F)c2[nH]c(-c3n[nH]c4c3C[C@@H]3C[C@]3(C)C4)nc2c1)N1CCOCC1=O [Example 23, (R)—N-(7-fluoro-2-((4aS,5aR)-5a-methyl-1,4,4a,5,5a,6-hexahydrocyclopropa[f]indazol-3-yl)-1H-benzo[d]imidazol-5-yl)-N-methyl-2-(3-oxomorpholino)propanamide] in this work.

An IC50 of 289 nM was found for Cc1cc2[nH]c(-c3n[nH]c4c3C[C@@H]3C[C@]3(C)C4)nc2cc1N(C)C(=O)CN1CCOC(CO)C1 (stereo partly drawn) [Example 27, 2-(2-(Hydroxymethyl)morpholino)-N-methyl-N-(6-methyl-2-((4aS,5aR)-5a-methyl-1,4,4a,5,5a,6-hexahydrocyclopropa[f]indazol-3-yl)-1H-benzo[d]imidazol-5-yl)acetamide] in this work.
